Laboratory results published in ChEMBL document CHEMBL5042502, “Discovery of Potent and Selective 2-(Benzylthio)pyrimidine-based DCN1-UBC12 Inhibitors for Anticardiac Fibrotic Effects” (J Med Chem, 2022).
The source made the active and inactive calls. The calls are words filed in the database; no cut-off is given here.

Assays:
DCN1-like protein 1 [1] = target: T1, DCN1-like protein 1 (Homo sapiens, UniProt Q96GG9); assay: Inhibition of GST-tagged DCN1 (unknown origin) using AcUBE2M1-21 incubated for 30 mins by HTRF assay
Target sequence in this assay (Q96GG9 whole entry): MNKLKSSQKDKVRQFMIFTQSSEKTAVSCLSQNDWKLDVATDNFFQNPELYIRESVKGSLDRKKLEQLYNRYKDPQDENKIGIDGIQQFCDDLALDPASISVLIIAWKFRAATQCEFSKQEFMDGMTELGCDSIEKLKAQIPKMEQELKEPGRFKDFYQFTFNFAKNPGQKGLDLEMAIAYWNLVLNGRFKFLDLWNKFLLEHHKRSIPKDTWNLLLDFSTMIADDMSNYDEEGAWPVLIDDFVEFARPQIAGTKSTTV

[2] = Cytotoxicity against Sprague-Dawley rat cardiac fibroblast by MTT assay; type: toxicity, cell-based, Fibroblast of cardiac tissue; details: cardiac fibroblasts
DCN1-like protein 5 = target: T2, DCN1-like protein 5 (Homo sapiens, UniProt Q9BTE7); assay: Binding affinity to DCN5 (unknown origin) assessed as inhibitory constant
T2 sequence (Q9BTE7 whole entry): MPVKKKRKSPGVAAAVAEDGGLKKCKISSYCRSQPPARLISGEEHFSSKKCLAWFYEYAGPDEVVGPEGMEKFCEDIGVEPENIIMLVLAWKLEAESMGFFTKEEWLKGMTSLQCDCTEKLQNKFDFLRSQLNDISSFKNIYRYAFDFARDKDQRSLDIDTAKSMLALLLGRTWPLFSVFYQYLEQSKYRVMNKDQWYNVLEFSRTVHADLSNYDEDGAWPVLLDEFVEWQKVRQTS

DCN1-like protein 2 = DCN1-like protein 2 (Homo sapiens, UniProt Q6PH85); assay: Binding affinity to DCN2 (unknown origin) assessed as inhibitory constant
DCN1-like protein 2, sequence (Q6PH85 whole entry): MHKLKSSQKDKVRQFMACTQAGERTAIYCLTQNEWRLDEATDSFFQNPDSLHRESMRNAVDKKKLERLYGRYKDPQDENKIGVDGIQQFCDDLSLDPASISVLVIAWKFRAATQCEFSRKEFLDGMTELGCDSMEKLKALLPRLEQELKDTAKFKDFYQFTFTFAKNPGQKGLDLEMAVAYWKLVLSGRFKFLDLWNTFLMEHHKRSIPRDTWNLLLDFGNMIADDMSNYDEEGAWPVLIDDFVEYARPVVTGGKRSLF

Cardiac fibroblast = assay: Inhibition of DCN1 in Sprague-Dawley rat cardiac fibroblast assessed as suppression in DCN1-UBC12 interaction by measuring reduction in UBC12 level at 10 uM incubated for 5 hrs co-incubated with DCN1 antibody by co-immunoprecipitation pull down assay; type: cell-based
DCN1-like protein 3 = target: T3, DCN1-like protein 3 (Homo sapiens, UniProt Q8IWE4); assay: Binding affinity to DCN3 (unknown origin) assessed as inhibitory constant
T3 sequence (Q8IWE4 whole entry): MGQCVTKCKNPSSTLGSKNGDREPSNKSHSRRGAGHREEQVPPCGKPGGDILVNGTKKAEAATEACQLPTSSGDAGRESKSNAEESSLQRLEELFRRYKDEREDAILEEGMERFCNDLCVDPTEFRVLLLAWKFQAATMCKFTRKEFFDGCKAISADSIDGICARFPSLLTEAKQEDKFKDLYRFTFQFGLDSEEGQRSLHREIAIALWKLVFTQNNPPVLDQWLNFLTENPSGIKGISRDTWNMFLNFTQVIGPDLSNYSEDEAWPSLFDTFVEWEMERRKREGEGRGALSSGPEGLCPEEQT

DCN1-like protein 1 [3] = target: T1, DCN1-like protein 1
Target sequence in this assay (Q96GG9 whole entry, looked up): as the sequence (Q96GG9 whole entry) above
Description: Binding affinity to DCN1 (unknown origin) assessed as Gibbs free energy change by MM-PBSA method

DCN1-like protein 1 [4] = target: T1, DCN1-like protein 1; remark: listed apart in the source
Target sequence in this assay (Q96GG9 whole entry, looked up): as the sequence (Q96GG9 whole entry) above
Description: Binding affinity to DCN1 (unknown origin) assessed as change in entropy by MM-PBSA method

[5] = system: Fibroblast of cardiac tissue; assay: Antifibrotic effect in SD rat cardiac fibroblast assessed as reduction in Ang II-induced collagen I upregulation preincubated for 2 hrs followed by Ang II-stimulation and further incubated for 24 hrs by western blot analysis (reference value: 71 %); type: functional; details: time 26.0 hrs
[6] = system: Fibroblast of cardiac tissue; assay: Antifibrotic effect in SD rat cardiac fibroblast assessed as reduction in Ang II-induced activation of Nrf2 signaling pathway preincubated for 2 hrs followed by Ang II-stimulation and further incubated for 24 hrs by western blot analysis (reference value: 43 %); type: functional; details: time 26.0 hrs

SMILES | IC50 (DCN1-like protein 1 [1]) | further results
COc1ccc(Nc2nc(SCc3ccccc3)nc(-c3cc(OC)c(OC)c(OC)c3)c2C#N)cc1 | > 10000 nM | –
COc1cc(-c2nc(SCC3CCCCC3)nc(Sc3nccs3)c2C#N)cc(OC)c1OC | 611 nM | –
COc1cc(-c2nc(SCc3ccccc3)nc(NC(C)(C)N3CCOCC3)c2C#N)cc(OC)c1OC | > 10000 nM | –
Cc1ccc(CSc2nc(Sc3nccs3)c(C#N)c(-c3ccc(Oc4ccccc4)cc3)n2)cc1 | 1020 nM | –
Cc1ccc(CSc2nc(Sc3nccs3)c(C#N)c(-c3ccccc3)n2)cc1 | 2790 nM | –
Cc1ccc(CSc2nc(Sc3nccs3)c(C#N)c(-c3c[nH]c4ccccc34)n2)cc1 | > 10000 nM | –
COc1cc(-c2nc(SCc3ccncc3)nc(Sc3nccs3)c2C#N)cc(OC)c1OC | 653 nM | –
COc1cc(-c2nc(SCc3ccoc3C(F)(F)F)nc(Sc3nccs3)c2C#N)cc(OC)c1OC | 450 nM | –
Cc1ccc(CSc2nc(Sc3nccs3)c(C#N)c(-c3ccc(Cl)cc3)n2)cc1 | 65.9 nM | –
COc1cc(-c2nc(SCc3ccccc3C)nc(Sc3nccs3)c2C#N)cc(OC)c1OC | 890 nM | –
COc1ccc(CSc2nc(Sc3nccs3)c(C#N)c(-c3cc(OC)c(OC)c(OC)c3)n2)cc1 | 2570 nM | –
COc1cc(-c2nc(SCc3ccccc3)nc(Nc3ccc(Cl)cc3)c2C#N)cc(OC)c1OC | > 10000 nM | –
Cc1ccc(CSc2nc(Sc3nccs3)c(C#N)c(-c3ccccc3C)n2)cc1 | 463 nM | –
CCCSc1nc(Sc2nccs2)c(C#N)c(-c2cc(OC)c(OC)c(OC)c2)n1 | 258 nM | –
COc1cc(-c2nc(SCc3ccc(C)cc3)nc(Sc3nccs3)c2C#N)cc(OC)c1OC | 42.2 nM | IC50 [2]: 6150 nM
COc1cc(-c2nc(SCc3ccc(C(C)(C)C)cc3)nc(Sc3nnnn3C)c2C#N)cc(OC)c1OC | 1220 nM | –

SMILES | IC50 (DCN1-like protein 1 [1]) | further results
COc1cc(-c2nc(SCc3c(C)noc3C)nc(Sc3nccs3)c2C#N)cc(OC)c1OC | 412 nM | –
COc1cc(-c2nc(SCc3ccc(C(F)(F)F)cc3)nc(Sc3nccs3)c2C#N)cc(OC)c1OC | 100 nM | –
COc1ccc(CNc2nc(Sc3nnnn3C)cc(-c3cc(OC)c(OC)c(OC)c3)n2)cc1 | 4130 nM | –
Cc1ccc(CSc2nc(Sc3nccs3)c(C#N)c(-c3cccs3)n2)cc1 | > 10000 nM | –
COc1cc(-c2nc(SCc3ccc(C(F)(F)F)cc3)nc(Sc3nnnn3CCN(C)C)c2C#N)cc(OC)c1OC | 60.5 nM | –
COc1cc(-c2nc(SCCc3ccccc3)nc(Sc3nccs3)c2C#N)cc(OC)c1OC | 2570 nM | –
COc1cc(-c2nc(SCc3nc4ccccc4[nH]3)nc(Sc3nccs3)c2C#N)cc(OC)c1OC | 814 nM | –
COc1cc(-c2nc(SCC(=O)NC(=O)Nc3ccccc3)nc(Sc3nccs3)c2C#N)cc(OC)c1OC | 6180 nM | –
Cc1ccc(CSc2nc(Sc3nccs3)c(C#N)c(-c3cccc(C)c3)n2)cc1 | 1690 nM | –
COc1cc(-c2nc(SCC(=O)Nc3ccccc3)nc(Sc3nccs3)c2C#N)cc(OC)c1OC | 8010 nM | –
COc1cc(-c2nc(SCc3ccccc3)nc(Nc3cccc(Cl)c3)c2C#N)cc(OC)c1OC | 2390 nM | –
COc1cc(-c2nc(SCc3ccccc3)nc(Nc3ccc(O)c(Cl)c3)c2C#N)cc(OC)c1OC | > 10000 nM | –
COc1cc(-c2nc(SCc3ccccc3)nc(Sc3nc(C)c(C)s3)c2C#N)cc(OC)c1OC | > 10000 nM | –
COc1cc(-c2nc(SCc3ccccc3)nc(NCc3nccs3)c2C#N)cc(OC)c1OC | > 10000 nM | –
COc1cc(-c2cc(Sc3nnnn3C)nc(SCc3ccc(Cl)cc3)n2)cc(OC)c1OC | 9620 nM | inhibition [5]: inactive; deltaG (DCN1-like protein 1 [3]): -7.12 kcal/mol; -TdeltaS (DCN1-like protein 1 [4]): 10.6 kcal/mol; inhibition [6]: inactive

Continued by falling IC50 (DCN1-like protein 1 [1]), values first:

IC50 (DCN1-like protein 1 [1]) | SMILES | further results
41.1 nM | COc1cc(-c2nc(SCc3ccccc3)nc(Sc3nc(C)cs3)c2C#N)cc(OC)c1OC | –
36.9 nM | C=CCSc1nc(Sc2nccs2)c(C#N)c(-c2cc(OC)c(OC)c(OC)c2)n1 | –
36.4 nM | COc1cc(-c2nc(SCc3ccccc3)nc(Sc3nnnn3C)c2C#N)cc(OC)c1OC | –
36.4 nM | COc1cc(-c2nc(SCc3ccc4ccccc4c3)nc(Sc3nccs3)c2C#N)cc(OC)c1OC | IC50 [2]: 22900 nM
31.2 nM | COc1ccc(CSc2nc(Sc3nnnn3C)c(C#N)c(-c3cc(OC)c(OC)c(OC)c3)n2)cc1 | –
29.3 nM | COc1cc(-c2nc(SCc3cccc(C(F)(F)F)c3)nc(Sc3nccs3)c2C#N)cc(OC)c1OC | –
29.1 nM | COc1cc(-c2nc(SCc3ccc(C(F)(F)F)cc3)nc(Sc3nnnn3C)c2C#N)cc(OC)c1OC | –
28.2 nM | COc1cc(-c2nc(SCc3ccccc3)nc(Sc3nccs3)c2C#N)cc(OC)c1OC | –
28.1 nM | COc1cc(-c2nc(SCc3ccccc3)nc(Sc3nnnn3CCN(C)C)c2C#N)cc(OC)c1OC | –
27.9 nM | Cc1ccc(CSc2nc(Sc3nccs3)c(C#N)c(-c3ccc(Br)cc3)n2)cc1 | –
25.8 nM | COc1cc(-c2nc(SCc3cccc(C(F)(F)F)c3)nc(Sc3nnnn3C)c2C#N)cc(OC)c1OC | –
25.3 nM | COc1cc(-c2nc(SCc3ccc(Cl)cc3)nc(Sc3nnnn3CCN(C)C)c2C#N)cc(OC)c1OC | –
24.7 nM | COc1cc(-c2nc(SCc3ccc(Cl)cc3)nc(Sc3nccs3)c2C#N)cc(OC)c1OC | –
21.2 nM | COc1ccc(-c2nc(SCc3ccc(C)cc3)nc(Sc3nccs3)c2C#N)cc1 | –
20.9 nM | Cc1ccc(CSc2nc(Sc3nccs3)c(C#N)c(-c3ccc(C)cc3)n2)cc1 | –
18.3 nM | C#CCSc1nc(Sc2nccs2)c(C#N)c(-c2ccc(C)cc2)n1 | Ki (DCN1-like protein 5): 2140 nM; Ki (DCN1-like protein 2): 66200 nM; inhibition (Cardiac fibroblast): Dose-Dependent Effect; Ki (DCN1-like protein 3): 592000 nM; IC50 [2]: 12600 nM
17.1 nM | COc1ccc(-c2nc(SCc3ccc(C)cc3)nc(Sc3nccs3)c2C#N)cc1OC | –
13.4 nM | COc1ccc(CSc2nc(Sc3nnnn3CCN(C)C)c(C#N)c(-c3cc(OC)c(OC)c(OC)c3)n2)cc1 | –
12.4 nM | COc1cc(-c2nc(SCc3cccc(C)c3)nc(Sc3nnnn3CCN(C)C)c2C#N)cc(OC)c1OC | –
12.2 nM | COc1cc(-c2nc(SCc3cccc(C(F)(F)F)c3)nc(Sc3nnnn3CCN(C)C)c2C#N)cc(OC)c1OC | –
11.5 nM | COc1cc(-c2nc(SCc3ccc(C(C)(C)C)cc3)nc(Sc3nccs3)c2C#N)cc(OC)c1OC | –
11.1 nM | COc1cc(-c2nc(SCc3cccc(C)c3)nc(Sc3nnnn3C)c2C#N)cc(OC)c1OC | –
9.37 nM | COc1cc(-c2nc(SCc3ccc(C)cc3)nc(Sc3nnnn3CCN(C)C)c2C#N)cc(OC)c1OC | IC50 [2]: 26000 nM
6.15 nM | COc1cc(-c2nc(SCc3ccc4ccccc4c3)nc(Sc3nnnn3C)c2C#N)cc(OC)c1OC | IC50 [2]: 18900 nM
5.48 nM | COc1cc(-c2nc(SCc3cccc(C)c3)nc(Sc3nccs3)c2C#N)cc(OC)c1OC | IC50 [2]: 15600 nM
5.36 nM | COC(=O)c1ccc(CSc2nc(Sc3nccs3)c(C#N)c(-c3cc(OC)c(OC)c(OC)c3)n2)cc1 | –
2.86 nM | COc1cc(-c2nc(SCc3ccc(C)cc3)nc(Sc3nnnn3C)c2C#N)cc(OC)c1OC | IC50 [2]: 9970 nM
2.25 nM | COc1cc(-c2nc(SCc3ccc4ccccc4c3)nc(Sc3nnnn3CCN(C)C)c2C#N)cc(OC)c1OC | IC50 [2]: 25800 nM
0.25 nM | C#CCSc1nc(Sc2nnnn2C)c(C#N)c(-c2cc(OC)c(OC)c(OC)c2)n1 | deltaG (DCN1-like protein 1 [3]): -10.3 kcal/mol; -TdeltaS (DCN1-like protein 1 [4]): 10.8 kcal/mol
